Values after ≈ are worked out from the molar mass of the structure shown. Like-named read-outs stand apart in the source and are kept apart here.
Assays:
PBS Stability Assay = assay type: physicochemical; conditions: buffer, pH 7.4, 2 μM, phosphate buffered saline pH 7.4; read-out: PBS T½
Protocol: Reagents. Stock solutions of test compounds in dimethyl sulfoxide (DMSO) having a final concentration of 10 mM were prepared and used in all experiments. Sekisui XenoTech (Kansas City, KS) provided pooled intestinal S9 fractions. All other chemicals were purchased from Sigma-Aldrich (St. Louis, MO) or VWR (West Chester, PA). Internal Standard/Quench (IS/Q) used to stop reactions was 100 nM labetalol in (by volume) formic acid (1%) and acetonitrile (99%).
PBS Stability Assay: For each test compound, an aliquot of the test compound was added to phosphate buffered saline (137 mM NaCl, 2.7 mM KCl, 10 mM phosphate buffer), pH 7.4. The incubation was initiated by the addition of the test compound to PBS to a final concentration of 2 μM. At 0, 10, 20, 30, 60 and 120 min, 25 μL aliquots of the incubation mixture were transferred to plates containing 225 μl of IS/Q solution. After quenching, the plates were centrifuged at 3000×g for 30 minutes. 150 μL aliquots of each supernatant were transferred to new plates and 150 μL water was added. Aliquots (10 μL) of the prepared samples were analyzed on a Thermo Q-Exactive mass spectrometer as described below.
Liquid Chromatography-Mass Spectrometry: Quantification of test compounds and control substrate was performed by analyte/internal standard peak area ratio (PAR) values measured on a Thermo Q-Exactive mass spectrometer coupled to a Dionex UltiMate 3000 HPLC with a Leap Technologies HTC PAL autosampler. The column used for analysis was a Thermo Scientific Hypersil GOLD (1.9 μm particle size, 50×2.1 mm). Mobile phase A consisted of 0.1% (v/v) formic acid in water. Mobile phase B consisted of 0.1% (v/v) formic acid in acetonitrile. Elution of analytes was achieved by a series of linear gradients varying the proportions of A and B. The mass spectrometer was calibrated on a weekly basis and mass tolerance of 5 ppm was used.
Data Analysis. Metabolic stabilities were determined by measuring the rates of disappearance of test compound and positive control substrate. Data (% of substrate remaining) were plotted on a semi-log scale and fitted using an exponential decline model:
where • Ct% of substrate remaining at time=t • C0% of substrate remaining at time=0 • t time • T½ half-life • The Half-life (T½) is determined by the following equation:
[formula] • Assuming a first-order reaction, the slope (k) is extrapolated from the aforementioned plotted data.

[1] = biological target: bovine intestinal alkaline phosphatase (Bos taurus (Bovine), UniProt P19111); test: BiALP: conversion by bovine intestinal alkaline phosphatase; assay type: in vitro ADME; conditions: 2 μM substrate, 100 ng/mL iALP, Tris pH 7.8, 37° C., 60 minutes; for [Intermediate A] or [Amprenavir]: parent formed
Protocol: Fosamprenavir and its parent compound (amprenavir) were purchased from Millipore Sigma (St. Louis, MO). Test compounds, Intermediate A, fosamprenavir, and amprenavir were each separately dissolved in dimethyl sulfoxide (DMSO) at a concentration of 10 mM to form stock solutions.
All other chemicals were purchased from Millipore Sigma (St. Louis, MO) and Thermo Fisher Scientific (Waltham, MA). […] Internal Standard/Quench (IS/Q) was 100 nM labetalol in 99:1 (v/v) acetonitrile/formic acid.
Incubations were performed with Tris buffer alone (0.1 M Tris-HCl pH 7.8 containing 1 mM MgCl2 and 1 mM ZnCl2) or the same Tris buffer further containing 100 ng/mL iALP (0.01 units/mL). Triplicate 100 μL aliquots of Tris buffer±iALP were warmed to 37° C. and the reactions were initiated by the addition of the test compound or fosamprenavir to obtain final substrate concentrations of 2 μM. Incubations were then continued at 37° C. At 60 minutes, reactions were terminated by the addition of 200 μl of IS/Q and mixed by pipette. […] Aliquots (150 μL) of the supernatants were transferred to fresh plates containing 150 μL of water. Aliquots (15 μL) of the diluted supernatants were analyzed by mass spectrometry as described below.
Quantification of the test compounds and fosamprenavir was performed by analyte/internal standard peak area ratios (PARs) with comparison to 2 μM Intermediate A and amprenavir, respectively. The LC instrumentation consisted of a Thermo Scientific Vanquish pump and a Thermo Hypersil Gold column (1.9 μm particle size, 2.1×50 mm). […] The MS instrument was a Thermo Q Exactive™ Plus operating in positive ionization mode with mass tolerance of 5 ppm and calibrated on a twice weekly basis.

Solubility in FaSSIF = conditions: for solubility / solubility at 2 h: 23 °C, pH 6.5, fassif, thermodynamic from solid; for solubility: FaSSIF (pH 6.5) solubility
Protocol: Buffer Preparation: Fasted State Simulated Intestinal Fluid (FaSSIF): Simulated Intestinal Fluid (SIF) powder containing a complex of Taurocholate and Lecithin (4:1 molar ratio) was obtained from Biorelevant. 0.056 g of SIF powder was added to 25 mL of buffer, adjusted to pH 6.5, containing 0.011 g of NaOH (pellets), 0.099 g of NaH2PO4 (monohydrate), and 0.155 g of NaCl. The buffer was prepared with HPLC H2O. The SIE powder was stirred until completely dissolved and allowed to stand for 2 hours.
Test Compounds: Each test compound was placed in a vial containing approximately 7 mg of material. Aliquots were weighed out for each assay media at each time point to be analyzed. The buffer was added to each vial such that the final dose concentration of 5 mg/mL was achieved. Samples were then vortexed for 5-10 seconds.
The plate was sealed with a pierceable heat seal and analyzed by HPLC-UV.

HIV-1 IIIB strain = test: MT-4 HIV Wild Type Virus Infection Assay (IIIB Virus); assay type: cell-based; conditions: Human immunodeficiency virus 1, IIIB, MT4, 120 h, MT-4 cells acutely infected with HIV-1 IIIB, 5 day incubation, Cell-titer glo
Protocol: Test compounds and controls were serially diluted and spotted in replicate into 384 well black assay plates via acoustic transfer (Echo). MT-4 cells were grown in batch, centrifuged and resuspended into fresh CCM media (RPMI w/10% FBS, 1% PS) at 2×10^6 cells/ml. MT-4 cells were acutely infected with HIV-1 IIIB strain. The size of each infection mix was scaled by the number of sample plates to be tested. Each infection mix was transferred into 5 mL closed tubes and nutated rapidly on a shaker at 37° C. incubator for 1 hour. The infection mixes were then diluted 25× in fresh cell culture media and then added to assay plates at 40 μL per well using a ViaFlo 384 pipettor. After 5 day incubation at 37° C. in a CO2 incubator, assay plates were processed with Cell-titer glo reagent using a ViaFlo 384 with an addition/mixing program. Plates were read immediately on Envision reader. Assay signals were plotted and dose response curves generated to determine individual compound EC50s.

[2] = FaSSIF pH 6.5, dose 5 mg/mL, 2-hour incubation, ambient temperature

Sequence of bovine intestinal alkaline phosphatase (P19111 20-506): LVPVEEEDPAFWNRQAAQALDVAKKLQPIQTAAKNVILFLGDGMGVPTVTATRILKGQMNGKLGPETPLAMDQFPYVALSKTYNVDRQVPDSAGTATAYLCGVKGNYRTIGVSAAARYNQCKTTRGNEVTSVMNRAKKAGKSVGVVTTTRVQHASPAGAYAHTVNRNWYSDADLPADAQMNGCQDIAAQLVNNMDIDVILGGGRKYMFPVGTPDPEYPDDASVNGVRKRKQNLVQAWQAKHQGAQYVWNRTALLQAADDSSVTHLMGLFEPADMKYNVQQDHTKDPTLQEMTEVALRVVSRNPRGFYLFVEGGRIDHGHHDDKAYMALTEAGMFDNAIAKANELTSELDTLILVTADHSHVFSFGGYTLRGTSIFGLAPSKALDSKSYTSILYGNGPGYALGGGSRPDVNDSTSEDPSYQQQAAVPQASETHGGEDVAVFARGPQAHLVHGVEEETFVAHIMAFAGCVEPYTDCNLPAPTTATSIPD

COC(=O)N[C@H](C(=O)N[C@@H](Cc1ccc(C#Cc2cnc(N3CC4CCC(C3)N4C3COC3)nc2)cc1)[C@H](CN(Cc1c(F)cc(-c2ccn(C(F)F)n2)cc1F)NC(=O)[C@@H](NC(=O)OC)C(C)(C)C(F)(F)F)OC(=O)OC(C)OC(=O)CC(C)(C)c1c(CC(=O)O)cc(C)cc1OP(=O)(O)O)C(C)(C)C(F)(F)F (stereo in doubt) [Example 64]
half-life at 2 μM (PBS Stability Assay): 8.43 h
[Compound] [1]: 1271 nM
FaSSIF (pH 6.5) solubility (Solubility in FaSSIF; [2]): 165 μg/mL
EC50 (HIV-1 IIIB strain; read-out: EC50): 11.1 nM

COC(=O)N[C@H](C(=O)N[C@@H](Cc1ccc(C#Cc2cnc(N3CC4CCC(C3)N4C3COC3)nc2)cc1)[C@H](CN(Cc1c(F)cc(-c2ccn(C(F)F)n2)cc1F)NC(=O)[C@@H](NC(=O)OC)C(C)(C)C(F)(F)F)OC(=O)OCOC(=O)CC(C)(C)c1c(OP(=O)(O)O)cc(C(=O)O)cc1C(=O)O)C(C)(C)C(F)(F)F [Example 1]
half-life at 2 μM (PBS Stability Assay): 8.74 h
[Compound] [1]: 1318.1 nM
solubility (Solubility in FaSSIF; [2]): 5060 µg/mL (≈ 3220 µM)
EC50 (HIV-1 IIIB strain; read-out: EC50): 7.6 nM

COC(=O)N[C@H](C(=O)N[C@@H](Cc1ccc(C#Cc2cnc(N3CC4CCC(C3)N4C3COC3)nc2)cc1)[C@H](CN(Cc1c(F)cc(-c2ccn(C(F)F)n2)cc1F)NC(=O)[C@@H](NC(=O)OC)C(C)(C)C(F)(F)F)OC(=O)OCOC(=O)CC(C)(C)c1c(C)cc(C(=O)O)cc1OP(=O)(O)O)C(C)(C)C(F)(F)F [Example 2]
half-life at 2 μM (PBS Stability Assay): 6.52 h
[Compound] [1]: 1359.6 nM
solubility (Solubility in FaSSIF; [2]): 680 µg/mL (≈ 440 µM)
EC50 (HIV-1 IIIB strain; read-out: EC50): 2.1 nM

COC(=O)N[C@H](C(=O)N[C@@H](Cc1ccc(C#Cc2cnc(N3CC4CCC(C3)N4C3COC3)nc2)cc1)[C@H](CN(Cc1c(F)cc(-c2ccn(C(F)F)n2)cc1F)NC(=O)[C@@H](NC(=O)OC)C(C)(C)C(F)(F)F)OC(=O)OCOC(=O)CC(C)(C)c1c(C)cc(C)cc1OP(=O)(O)O)C(C)(C)C(F)(F)F [Example 12]
half-life at 2 μM (PBS Stability Assay): 4.92 h
EC50 (HIV-1 IIIB strain; read-out: EC50): 23.4 nM

COC(=O)N[C@H](C(=O)N[C@@H](Cc1ccc(C#Cc2cnc(N3CC4CCC(C3)N4C3COC3)nc2)cc1)[C@H](CN(Cc1c(F)cc(-c2ccn(C(F)F)n2)cc1F)NC(=O)[C@@H](NC(=O)OC)C(C)(C)C(F)(F)F)OC(=O)CC(C)(C)c1c(CC(=O)Nc2ccccn2)cc(C)cc1OP(=O)(O)O)C(C)(C)C(F)(F)F [Example 13, (5S,10S,11S,14S)-8-(4-(1-(difluoromethyl)-1H-pyrazol-3-yl)-2,6-difluorobenzyl)-11-(4-((2-(8-(oxetan-3-yl)-3,8-diazabicyclo[3.2.1]octan-3-yl)pyrimidin-5-yl)ethynyl)benzyl)-3,6,13,16-tetraoxo-5,14-bis(1,1,1-trifluoro-2-methylpropan-2-yl)-2,17-dioxa-4,7,8,12,15-pentaazaoctadecan-10-yl 3-methyl-3-(4-methyl-2-(2-oxo-2-(pyridin-2-ylamino)ethyl)-6-(phosphonooxy)phenyl)butanoate]
half-life at 2 μM (PBS Stability Assay): 1.98 h
[Compound] [1]: 1660.2 nM
biALP Intermediate A or [Amprenavir] (% of total) [1]: 0.1 % of total
[Intermediate A] or [Amprenavir] [1]: 1.8 nM
EC50 (HIV-1 IIIB strain): 223 nM

COC(=O)N[C@H](C(=O)N[C@@H](Cc1ccc(C#Cc2cnc(N3CC4CCC(C3)N4C3COC3)nc2)cc1)[C@H](CN(Cc1c(F)cc(-c2ccn(C(F)F)n2)cc1F)NC(=O)[C@@H](NC(=O)OC)C(C)(C)C(F)(F)F)OC(=O)CC(C)(C)c1c(CC(=O)N[C@@H](CC(=O)O)C(=O)O)cc(C)cc1OP(=O)(O)O)C(C)(C)C(F)(F)F [Example 23]
half-life at 2 μM (PBS Stability Assay): 11.7 h
solubility at 2 h (Solubility in FaSSIF): 4540 µg/mL (≈ 2840 µM)
EC50 (HIV-1 IIIB strain): 204 nM

COC(=O)N[C@H](C(=O)N[C@@H](Cc1ccc(C#Cc2cnc(N3CC4CCC(C3)N4C3COC3)nc2)cc1)[C@H](CN(Cc1c(F)cc(-c2ccn(C(F)F)n2)cc1F)NC(=O)[C@@H](NC(=O)OC)C(C)(C)C(F)(F)F)OC(=O)CC(C)(C)c1c(CC(=O)NC(CCCC(=O)O)C(=O)O)cc(C)cc1OP(=O)(O)O)C(C)(C)C(F)(F)F (stereo partly drawn) [Example 41]
half-life at 2 μM (PBS Stability Assay): 5.02 h
[Compound] [1]: 2074.8 nM
EC50 (HIV-1 IIIB strain): 43.5 nM

COC(=O)N[C@H](C(=O)N[C@@H](Cc1ccc(C#Cc2cnc(N3CC4CCC(C3)N4C3COC3)nc2)cc1)[C@H](CN(Cc1c(F)cc(-c2ccn(C(F)F)n2)cc1F)NC(=O)[C@@H](NC(=O)OC)C(C)(C)C(F)(F)F)OC(=O)CC(C)(C)c1c(CC(=O)N2CCN(S(N)(=O)=O)CC2)cc(C)cc1OP(=O)(O)O)C(C)(C)C(F)(F)F [Example 81, (5S,10S,11S,14S)-8-(4-(1-(difluoromethyl)-1H-pyrazol-3-yl)-2,6-difluorobenzyl)-11-(4-((2-(8-(oxetan-3-yl)-3,8-diazabicyclo[3.2.1]octan-3-yl)pyrimidin-5-yl)ethynyl)benzyl)-3,6,13,16-tetraoxo-5,14-bis(1,1,1-trifluoro-2-methylpropan-2-yl)-2,17-dioxa-4,7,8,12,15-pentaazaoctadecan-10-yl 3-methyl-3-(4-methyl-2-(2-oxo-2-(4-sulfamoylpiperazin-1-yl)ethyl)-6-(phosphonooxy)phenyl)butanoate]
[Compound] [1]: 2385.2 nM
biALP Intermediate A or [Amprenavir] (% of total) [1]: 0 % of total
[Intermediate A] or [Amprenavir] [1]: 0 nM
solubility at 2 h (Solubility in FaSSIF): < 1000 µg/mL
EC50 (HIV-1 IIIB strain): 627 nM

COC(=O)N[C@H](C(=O)N[C@@H](Cc1ccc(C#Cc2cnc(N3CC4CCC(C3)N4C3COC3)nc2)cc1)[C@H](CN(Cc1c(F)cc(-c2ccn(C(F)F)n2)cc1F)NC(=O)[C@@H](NC(=O)OC)C(C)(C)C(F)(F)F)OC(=O)OCOC(=O)CC(C)(C)c1c(CC(=O)N2CCN(S(C)(=O)=O)CC2)cc(C)cc1OP(=O)(O)O)C(C)(C)C(F)(F)F [Example 84]
half-life at 2 μM (PBS Stability Assay): 3.02 h
[Compound] [1]: 1594.8 nM
EC50 (HIV-1 IIIB strain): 3.9 nM
